Here are results for two compounds from patent publication US20110212165A1, “PHARMACEUTICAL COMPOSITIONS OF THE ISOLATED D-ENANTIOMER OF THE QUINAZOLINONE DERIVATIVE HALOFUGINONE” (priority 2005, published 2011).

The subject of test [1] is collagen type I synthesis of skin fibroblasts (Detroit 551). The test is described as follows: Collagen type I synthesis of skin fibroblasts (CICP, Prolagen-C ELISA). As to conditions: for effect on collagen type I synthesis of skin fibroblasts: Detroit 551, 75 μM ascorbic acid, 48 h, increasing concentrations. The format is cell-based, Human. Here is the method: Skin fibroblasts (Detroit 551) were seeded in a 96-well plate (3000 cells/well). Twenty-four hours later the cells were incubated for additional 48 h with 75 μM ascorbic acid and increasing concentrations of the tested compounds (induction medium was exchanged after 24 h). Cell medium was collected and the Prolagen-C ELISA kit of “METRA” was used for detection of collagen type I C′ propeptide (CICP) concentration.
Background: An ELISA detects its analyte on a solid surface through an enzyme-linked reagent.

Test [2] deals with hAoSMC, HUVEC, Detroit 551, 5637, HT1080 and MDA-MB-435S cells. The experiment in a line: Cell proliferation assay (methylene blue staining) of cultured, actively growing cells. Format: cell-based, Human. As to conditions: all tested cells (hAoSMC, HUVEC, Detroit 551, 5637, HT1080, MDA-MB-435S); increasing concentrations, 72-96 hours after seeding. The source says: The present study sought to compare the effect of each of the trans-halofuginone enantiomers to the racemic mixture on proliferation of cultured, actively growing cells. Human aortic smooth muscle cells (hAoSMC) and Human Umbilical Vein Endothelial Cells (HUVEC) were purchased from Clonetics and grown in Clonetics suitable growth media. Human skin fibroblasts (Detroit 551) and human fibrosarcoma (HT1080) cell lines were purchased from the American Type Culture Collection (ATCC) and grown in MEM supplemented with 10% FCS, 1 mM Sodium pyruvate, 2 mM L-glutamine and 0.2% antibiotic solution (Biological industries, Beit-Haemek, Israel). The human bladder carcinoma (5637) and human breast carcinoma (MDA-MB-435S) cell lines were purchased from the ATCC and grown in DMEM supplemented with 10% FCS and 0.2% antibiotic solution (Biological industries, Beit-Haemek, Israel). Cells were grown in 37° C. and 5% CO2. Cells were seeded in 96-well plates. Twenty-four hours later, increasing concentrations of tested compounds were added to the wells. When the cultures reached sub confluence (72-96 hours after seeding) the cells were fixed with 2.5% glutaraldehyde, washed three times with distilled water, followed by one wash with 0.1 M Boric buffer (pH 8.5). […] The optical density at 620 nm was determined using a micro plate spectrophotometer.

The next test has as its system coccidiosis. As to conditions: versus racemic compound; cited from earlier work.

SMILES strings stand for the structures. “Also recorded” adds a separate entry of the source.

Turning to `O=C(CC1NCCCC1O)Cn1cnc2cc(Br)c(Cl)cc2c1=O` (single isomer, unassigned; enantiomer 7) [D-enantiomer, 7-bromo-6-chloro-3-[3-(3-hydroxy-2-piperidinyl)-2-oxopropyl]-4(3H)-quinazolinone], in test [1] (listed as D-enantiomer of halofuginone), the “effect on collagen type I synthesis of skin fibroblasts” value is “suppressed collagen type I synthesis of skin fibroblasts in a dose dependent manner”. Moreover, the “activity in suppressing collagen type I synthesis relative to the racemic mixture” value in test [1] (Detroit 551, versus racemic mixture of halofuginone, listed as D-enantiomer of halofuginone) is reported as “about two”. Besides, the “effect on cell proliferation” value in test [2] is listed as “suppressed proliferation of all the tested cells in a dose dependent manner”. For the same compound, in the test with coccidiosis, the “coccidiostatic activity relative to the racemic compound” value is listed as “three”.

For the compound `O=C(CC1NCCCC1O)Cn1cnc2cc(Br)c(Cl)cc2c1=O` (single isomer, unassigned; enantiomer 7) [L-enantiomer, 7-bromo-6-chloro-3-[3-(3-hydroxy-2-piperidinyl)-2-oxopropyl]-4(3H)-quinazolinone], the “effect on collagen type I synthesis of skin fibroblasts” value in test [1] is “no effect; also recorded: virtually inactive”. Also, in test [2], the “effect on cell proliferation” value is “no effect; also recorded: virtually inactive”.
